Measured values taken from patent US20050208058A1, “Compositions and methods for modulating cell division” (priority 2003, published 2005).
d = 2'-deoxy (DNA)

Columns and labels:
Assay type in all cases: cell-based, human
RPE cells [1] = experiment: BrDU incorporation after siRNA treatment and nocodazole synchronization; conditions: relative to control cells (siRNA to lamin), after nocodazole release; FIG. 2A
Protocol: To further study the effects of silencing centrosomal genes, the following cell cycle experiments were performed using RPE cells. In immunofluorescence experiments, cells were delivered by OLIGOFECTAMINE in a media solution containing between 1-100 nanomolar concentration of siRNAs. After 4 hours of incubation with lipofectamine, cells were washed, and cell cycle progression was assayed by (i) treating cells with 5-Bromo-2′-deoxyuridine (BrDU from Sigma, St Louis, Mo.) for 24 hours and staining for BrDU or (ii) staining cells with antibody to Ki-67 (BD Biosciences) according to manufacturer's instructions. BrDU treatment and staining were performed as follows: after 50-70 hours incubation with siRNA, BrDU was added to cells at a final concentration of 5 μg/ml. Cells were fixed in −20° C. methanol and then treated with 2N HCL at 22° C. for 30 minutes, incubated with 1:500 mouse anti-BrdU antibody (Becton Dickinson, Palo Alto, Calif.), and labeled with 1:1,000 goat FITC-mouse antibody (Molecular Probes, Inc.). Cells were also treated with 4′,6-diamidino-2-phenylindole (DAPI) (Molecular Probes) according to the manufacturer's instructions. Cells were prepared, imaged, and the resulting images were deconvolved as described in Example 1.
Upon release from nocodazole treatment, proliferating cells typically resume cell cycle progression. Chromosomal DNA in the cells was imaged using DAPI (faint ghost-like staining) and/or BrDU (brighter staining). Although DAPI can be used to visualize DNA at any stage of the cell cycle, BrDU is only incorporated into newly synthesized DNA only during S-phase. Thus, BrDU incorporation can be used as a marker of cells that progress through at least one S-phase of the cell cycle. Control cells in this experiment were treated with siRNA to lamin.

RPE cells [2] = experiment: FACS of cells treated in tandem with two siRNAs (p53 dependence); conditions: tandem treatment silamin then siGCP2; FIG. 6A
Protocol: For flow cytometry (i.e., fluorescence-activated cell sorter or FACS) experiments, siRNAs were delivered to cells as described above, and were incubated for 50-70 hours. To synchronize cells, nocodazole was added to the cells to a concentration of 5 μg/mL for 12 hours. Cells were stained with propidium iodide and analyzed by flow cytometry (FACSCAN; Becton Dickinson) using FLOJO® software (Tree Star, Inc., Ashland, Oreg.).
A number of experiments were conducted to determine if p53 is required for the cell cycle arrest phenotype described herein. FACS analysis of tandem siRNA-treated cells was performed as described in Example 2. BrDU and DAPI imaging was performed as described in Example 2. Intracellular p53 was visualized using anti-p53 antibody that is specific for activated p53 (i.e., p53 phosphorylated at Serine 33) (“α-Pser33-p53” provided by Yoichi Taya and described in Kishis et al., J. Biol. Chem., 276:39115-3922, 2001)
In FIG. 6A each line tracing represents FACS data from cells treated in tandem with the siRNAs directed to the gene products indicated above the line. Cells were first treated with siRNA directed to the gene product to the left of the slash. Up to 24 hours later, siRNA directed to the gene product to the right of the slash was added. […] 12 hours before collecting the cells, nocodazole was added to the cells analyzed in the bottom three line tracings. […]

GCP2 = experiment: Immunofluorescence of GCP2 at the centrosome after siRNA treatment; conditions: vs siLamin; FIG. 1B
Protocol: To test the ability of siRNAs to silence centrosomal gene products, cells were treated with siRNAs for 24 hours. Cells were diploid, telomerase-immortalized human retinal pigment epithelial (RPE1) cells (hTERT-RPE1s from Clontech, Palo Alto, Calif.) (see Morales et al., Nat Genet, 21:115-118, 1999). siRNAs directed to δ-tubulin (SEQ ID NO:2), γ-tubulin (SEQ ID NO:4), GCP2 (SEQ ID NO:5), GCP3(SEQ ID NO:6), cNAP1 (SEQ ID NO:8), PCM1 (SEQ ID NO:9), ninein (SEQ ID NO:21), NEK2a (SEQ ID NO:10), centrin2 (SEQ ID NO:12), CDC14A (SEQ ID NO:13), gapcena (SEQ ID NO:15), nemo (SEQ ID NO:16), pericentrin (SEQ ID NO:23), lamin A/C (CUGGACUUCCAGAAGAACA, SEQ ID NO: 24) zyxin (UGUGGCUGUCAACGAACUC, SEQ ID NO:25), and p53 (GGACAAGGGUUGGGCUGGG, SEQ ID NO:26) were made as complementary single stranded 19-mer siRNAs with 3′ dTdT overhangs (Dharmacon Inc., Lafayette, Colo.), deprotected, annealed and delivered into cells using OLIGOFECTAMINE® from Invitrogen (Carlsbad, Calif.). Nucleotides were delivered in media containing up to 100 nanomolar concentrations of siRNAs. […]
FIG. 1B compares cells treated with siRNA to Lamin (siLamin, left panel) and GCP2 (siGCP2, right panel). Oval shaped fluorescence staining indicates nuclear DNA (large arrow). […]

## UCUCGUACUCCAGAAGACU (siRNA; RNA, 3' dTdT, backbone not given here) [siGCP2, siRNA directed to GCP2]
RPE cells [1]
  incorporation of BrDU into chromosomal material: clearly inhibited incorporation of BrDU
RPE cells [2]
  nocodazole shift from G1 peak to G2/M peak: blocked
GCP2
  GCP2 level in the centrosome (immunofluorescence): reduced levels of GCP2 in the centrosome
